From patent US20100137303A1, “NEW COMPOUND 255” (AstraZeneca AB, priority 2008, published 2010) come the findings set out here.

SMILES strings stand for the structures. Converted amounts (≈) assume the structure as drawn. A value given as a limit tells only on which side of the number the result lay.

One assay deals with Spn548. As to the kind of experiment: Bacterial susceptibility testing in liquid media, Spn548 MIC. Particulars: Streptococcus pneumoniae, 24 h, read-out: Spn548 Mean MIC.
The next assay relates to Eco-tolC. As to the kind of experiment: Bacterial susceptibility testing in liquid media, Eco-tolC MIC. Particulars: Escherichia coli, read-out: Eco-tolC MIC.
In the next assay the target is T1, Msm. GyrB (Mycolicibacterium smegmatis, UniProt A0QNE0).
T1 construct: 15 nM Msm; GyrB, 650 μM ATP, and compound in dimethyl sulfoxide
Briefly: Msmegmatis GyrB enzyme assay (ATPase, malachite green phosphate detection). Type of assay: biochemical. As to conditions: read-out: Msm_GyrB IC50. In short, it runs like this:
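ATPase activity of 15 nM Msm. GyrB was measured with 650 μM ATP in 50 mM HEPES pH 7.7 containing 250 mM potassium glutamate, 200 mM KCl, 2 mM MgCl2, 2% glycerol, 1 mM DTT and 0.005% Brij-35, with compound added in DMSO. Released phosphate was detected with an ammonium molybdate/malachite green reagent plus stabilizer.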

The subject of a further assay is M. tuberculosis. Briefly: Mycobacteria susceptibility testing, Microplate Alamar Blue Assay, Mtu MIC. The format is cell-based, Mycobacterium tuberculosis (Mtu). Particulars: Mycobacterium tuberculosis.

T1 sequence (A0QNE0 whole entry): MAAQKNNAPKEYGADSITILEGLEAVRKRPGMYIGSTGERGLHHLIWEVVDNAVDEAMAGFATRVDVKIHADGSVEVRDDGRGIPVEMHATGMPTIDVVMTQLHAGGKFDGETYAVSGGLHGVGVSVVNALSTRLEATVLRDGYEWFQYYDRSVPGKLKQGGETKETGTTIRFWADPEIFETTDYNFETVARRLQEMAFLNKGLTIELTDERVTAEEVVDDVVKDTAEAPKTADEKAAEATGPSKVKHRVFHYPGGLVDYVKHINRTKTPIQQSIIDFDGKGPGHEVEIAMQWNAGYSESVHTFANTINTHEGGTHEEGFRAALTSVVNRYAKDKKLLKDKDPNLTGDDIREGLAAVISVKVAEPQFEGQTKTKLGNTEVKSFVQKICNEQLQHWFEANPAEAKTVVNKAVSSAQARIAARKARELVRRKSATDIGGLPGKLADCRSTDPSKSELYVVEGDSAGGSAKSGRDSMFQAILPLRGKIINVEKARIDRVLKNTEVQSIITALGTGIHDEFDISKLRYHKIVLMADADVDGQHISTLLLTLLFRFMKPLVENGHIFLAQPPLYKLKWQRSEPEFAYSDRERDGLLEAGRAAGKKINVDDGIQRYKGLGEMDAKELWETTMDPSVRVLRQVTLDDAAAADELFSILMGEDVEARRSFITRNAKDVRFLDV
Source text for Spn548: Compounds may be tested for antimicrobial activity by susceptibility testing in liquid media. Compounds may be dissolved in dimethylsulfoxide and tested in 10 doubling dilutions in the susceptibility assays. The organisms used in the assay may be grown overnight on suitable agar media and then suspended in a liquid medium appropriate for the growth of the organism. The suspension can be a 0.5 McFarland and a further 1 in 10 dilution can be made into the same liquid medium to prepare the final organism suspension in 100 μL. Plates can be incubated under appropriate conditions at 37° C. for 24 hrs prior to reading.

The term MIC denotes the lowest concentration that inhibits growth of the organism. What is called IC50 is the concentration needed to halve the response being measured. In the case of `CCNC(=O)Nc1nc2cc(-c3cncnc3)c(OC[C@H]3CCCO3)nc2s1` [Example 63, 1-ethyl-3-{6-pyrimidin-5-yl-5-[(2R)-tetrahydrofuran-2-ylmethoxy][1,3]thiazolo[5,4-b]pyridin-2-yl}urea], the MIC in the assay with Spn548 came out at 0.125 µg/mL (≈ 0.312 µM); in the assay with Eco-tolC, 1 µg/mL (≈ 2.5 µM); with M. tuberculosis it was 0.25 µg/mL (≈ 0.624 µM). Moreover, at Msm. GyrB, the IC50 came out at 2.6 nM.
Consider `CCNC(=O)Nc1nc2cc(-c3cncnc3)c(OC3CCOC3)nc2s1` (stereo not shown) [Example 64, 1-ethyl-3-[6-pyrimidin-5-yl-5-(tetrahydrofuran-3-yloxy)[1,3]thiazolo[5,4-b]pyridin-2-yl]urea], for which the MIC in the assay with Spn548 turned out to be 0.125 µg/mL (≈ 0.323 µM); with Eco-tolC, 0.5 µg/mL (≈ 1.29 µM); in the assay on M. tuberculosis, 0.125 µg/mL (≈ 0.323 µM). At Msm. GyrB, the half-inhibitory concentration (IC50) was under 2.54 nM.
For the compound `CCNC(=O)Nc1nc2cc(-c3cncnc3)c(N[C@@H](C)C(=O)OCC)nc2s1` [Example 65, Ethyl N-{2-[(ethylcarbamoyl)amino]-6-pyrimidin-5-yl[1,3]thiazolo[5,4-b]pyridin-5-yl}-L-alaninate], the results for the minimal inhibitory concentration (MIC) in the assay on Spn548, with Eco-tolC and in the assay on M. tuberculosis were 0.125 µg/mL (≈ 0.301 µM), 4 µg/mL (≈ 9.63 µM) and 0.125 µg/mL (≈ 0.301 µM), respectively. In addition, the IC50 on Msm. GyrB is under 2.54 nM.
Regarding `CCNC(=O)Nc1nc2cc(-c3cnc(C#N)nc3)c(OCC3CCOC3)nc2s1` (stereo not shown) [Example 66, 1-[6-(2-cyanopyrimidin-5-yl)-5-(tetrahydrofuran-3-ylmethoxy)[1,3]thiazolo[5,4-b]pyridin-2-yl]-3-ethylurea], the MIC with Spn548 was 0.125 µg/mL (≈ 0.294 µM); in the assay on Eco-tolC, 0.5 µg/mL (≈ 1.18 µM); against M. tuberculosis, under 0.043 µg/mL. Further, the concentration for half-maximal inhibition (IC50) on Msm. GyrB was under 2.54 nM.
Take `CCNC(=O)Nc1nc2cc(-c3cncnc3)c(N[C@@H](C)C(=O)NC)nc2s1` [Example 67, (2S)-2-[[2-(ethylcarbamoylamino)-6-pyrimidin-5-yl-thiazolo[4,5-e]pyridin-5-yl]amino]-N-methyl-propanamide]: the minimum inhibitory concentration (MIC) was 2 µg/mL (≈ 4.99 µM) with Spn548, over 64 µg/mL in the assay on Eco-tolC and 1.41 µg/mL (≈ 3.53 µM) in the assay with M. tuberculosis. Also, the IC50 at Msm. GyrB was determined as 15.9 nM.
In the case of `CCNC(=O)Nc1nc2cc(-c3ccc(C(F)(F)F)nc3)c(OCC3CCOC3)nc2s1` (stereo not shown) [Example 70, 1-ethyl-3-{5-(tetrahydrofuran-3-ylmethoxy)-6-[6-(trifluoromethyl)pyridin-3-yl][1,3]thiazolo[5,4-b]pyridin-2-yl}urea], the MIC in the assay with Spn548 was 0.0625 µg/mL (≈ 0.134 µM); with Eco-tolC, 0.25 µg/mL (≈ 0.535 µM); against M. tuberculosis, 4.76 µg/mL (≈ 10.2 µM). Further, at Msm. GyrB, the IC50 was 6.92 nM.
For `CCNC(=O)Nc1nc2cc(-c3ccc(F)nc3)c(OC3C=CCCC3)nc2s1` (stereo not shown) [Example 72, 1-[5-(cyclohex-2-en-1-yloxy)-6-(6-fluoropyridin-3-yl)[1,3]thiazolo[5,4-b]pyridin-2-yl]-3-ethylurea], the MIC in the assay with Spn548 was determined as 0.0625 µg/mL (≈ 0.151 µM); in the assay on Eco-tolC it was 0.25 µg/mL (≈ 0.605 µM); in the assay with M. tuberculosis, 2 µg/mL (≈ 4.84 µM). The IC50 on Msm. GyrB is 29.1 nM.
